Data from ChEMBL document CHEMBL5726287, “Biaryl acetamide compounds and methods of use thereof” (2017).

Target: Mast/stem cell growth factor receptor Kit (Homo sapiens, UniProt P10721)
Assay: Competition Binding Assay: Competition binding assays used herein were developed, validated and performed as described in Fabian et al., Nature Biotechnology 2005, 23, 329-336. Kinases were produced as fusions to T7 phage (See, Fabian et al. or WO04/015142) or alternatively, the kinases were expressed in HEK-293 cells and subsequently tagged with DNA for PCR detection (See, WO08/005,310). […] The liganded beads were blocked with excess biotin and washed with blocking buffer (SeaBlock (Pierce), 1% BSA, 0.05% Tween 20, 1 mM DTT) to remove unbound ligand and to reduce non-specific binding. […] Test compounds were prepared as 100× stocks in DMSO and diluted into the aqueous environment. Kds were determined using an eleven point threefold serial dilutions. DMSO or control compounds were was added to control assays lacking a test compound.
Type: cell-based

Chain of Mast/stem cell growth factor receptor Kit (P10721 whole entry, the tested form may be a part): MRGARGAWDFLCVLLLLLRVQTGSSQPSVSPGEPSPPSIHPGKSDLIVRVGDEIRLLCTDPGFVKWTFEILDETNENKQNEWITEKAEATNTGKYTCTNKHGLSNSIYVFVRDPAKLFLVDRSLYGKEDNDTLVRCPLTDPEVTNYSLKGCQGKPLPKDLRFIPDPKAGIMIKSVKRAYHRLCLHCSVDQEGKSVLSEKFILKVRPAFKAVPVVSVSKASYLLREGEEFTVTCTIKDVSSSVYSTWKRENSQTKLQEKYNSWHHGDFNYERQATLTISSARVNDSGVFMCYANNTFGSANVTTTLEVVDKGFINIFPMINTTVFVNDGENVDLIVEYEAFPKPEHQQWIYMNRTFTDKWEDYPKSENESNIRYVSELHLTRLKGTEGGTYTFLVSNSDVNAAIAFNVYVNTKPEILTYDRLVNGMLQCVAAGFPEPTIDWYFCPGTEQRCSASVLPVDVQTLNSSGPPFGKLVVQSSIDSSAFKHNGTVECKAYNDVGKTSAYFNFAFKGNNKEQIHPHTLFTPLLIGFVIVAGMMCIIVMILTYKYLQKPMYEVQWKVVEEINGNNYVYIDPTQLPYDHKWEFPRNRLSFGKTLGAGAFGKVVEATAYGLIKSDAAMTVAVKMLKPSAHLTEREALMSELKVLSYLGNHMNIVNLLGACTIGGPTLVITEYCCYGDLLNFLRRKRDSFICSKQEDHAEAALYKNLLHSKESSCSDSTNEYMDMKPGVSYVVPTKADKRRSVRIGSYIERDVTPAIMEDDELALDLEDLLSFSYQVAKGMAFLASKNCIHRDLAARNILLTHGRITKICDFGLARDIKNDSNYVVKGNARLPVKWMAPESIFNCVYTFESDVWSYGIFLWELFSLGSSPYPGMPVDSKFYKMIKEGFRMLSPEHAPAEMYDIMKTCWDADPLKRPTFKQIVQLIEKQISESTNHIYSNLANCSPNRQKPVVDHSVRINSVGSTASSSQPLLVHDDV

Row | Kd [nM] | Structure (SMILES)
1 | < 5 | COc1cc2nc(-c3ccc(CC(=O)Nc4cc(C5(C)CC5)no4)c(F)c3)cnc2cc1OCCN1CCOCC1
2 | < 5 | COc1cc2nc(-c3ccc(CC(=O)Nc4cc(C(C)(C)C(F)(F)F)nn4C)c(F)c3)cnc2cc1OCCN1CCOCC1
3 | < 5 | COc1cc2ncc(-c3ccc(CC(=O)Nc4cc(C5(C(F)(F)F)CC5)on4)cc3)nc2cc1OC
